# Reference: PubChem BioAssay AID1963981 (Molecular Pharmacology Branch, DTP, NCI, 2024)
# Test system: 354836-022-R-J1-PDC multicell spheroid viability
# Assay: Anticancer human tumor 354836-022-R-J1-PDC patient-derived head and neck squamous cell carcinoma cell line growth inhibition [PI3K]
# Conditions: second compound 1 µM; first compound 0.316 µM; hits give low values
# How it was run: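 Combination activity was assessed by viability in multicellular tumor spheroids carrying HUVEC and MSC components. Agents were tested with PI3K inhibitors from a Cmax-based top dose (or 10 microM) downward in half-log increments.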
# 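Also: spheroids exposed to agents for seven days before the viability read.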
row,Structure (SMILES),"viability, T/C [%]"
1,CCN1CCN(Cc2ccc(Nc3ncc(F)c(-c4cc(F)c5nc(C)n(C(C)C)c5c4)n3)nc2)CC1 + CC(Nc1ncnc2nc[nH]c12)c1cc2cccc(Cl)c2c(=O)n1-c1ccccc1,91.6
2,C#Cc1c(F)ccc2cc(O)cc(-c3ncc4c(N5CC6CCC(C5)N6)nc(OCC56CCCN5CC(F)C6)nc4c3F)c12 (stereo unspecified) + CC(Nc1ccc2c(c1)OCCn1cc(N3C(=O)OCC3C(F)F)nc1-2)C(N)=O,55.9
3,CC(C)NCC(C(=O)N1CCN(c2ncnc3c2C(C)CC3O)CC1)c1ccc(Cl)cc1 (stereo unspecified) + COc1c(OCCCN2CCOCC2)ccc2c3n(c(=NC(=O)c4cnc(N)nc4)nc12)CCN3,1.33
4,CC1(C)CCC(Nc2ncc(C(F)(F)F)c(-c3c[nH]c4c(P(C)(C)=O)c(C#N)ccc34)n2)CN1 (stereo unspecified) + Cc1nc(NC(=O)N2CCCC2C(N)=O)sc1-c1ccnc(C(C)(C)C(F)(F)F)c1,14.6

# Same assay, conditions: second compound 1 µM; first compound 1 µM; hits give low values
row,Structure (SMILES),"viability, T/C [%]"
1,C=CC(=O)N1CCN(c2nc(=O)n(-c3c(C)ccnc3C(C)C)c3nc(-c4c(O)cccc4F)c(F)cc23)C(C)C1 (stereo unspecified) + CC(Nc1ncnc2nc[nH]c12)c1cc2cccc(Cl)c2c(=O)n1-c1ccccc1,102
2,CCN1CCN(Cc2ccc(Nc3ncc(F)c(-c4cc(F)c5nc(C)n(C(C)C)c5c4)n3)nc2)CC1 + CC(Nc1ncnc2nc[nH]c12)c1cc2cccc(Cl)c2c(=O)n1-c1ccccc1,47.8
3,C#Cc1c(F)ccc2cc(O)cc(-c3ncc4c(N5CC6CCC(C5)N6)nc(OCC56CCCN5CC(F)C6)nc4c3F)c12 (stereo unspecified) + CC(Nc1ccc2c(c1)OCCn1cc(N3C(=O)OCC3C(F)F)nc1-2)C(N)=O,59.7
4,CC(C)NCC(C(=O)N1CCN(c2ncnc3c2C(C)CC3O)CC1)c1ccc(Cl)cc1 (stereo unspecified) + COc1c(OCCCN2CCOCC2)ccc2c3n(c(=NC(=O)c4cnc(N)nc4)nc12)CCN3,1.12
5,CC1(C)CCC(Nc2ncc(C(F)(F)F)c(-c3c[nH]c4c(P(C)(C)=O)c(C#N)ccc34)n2)CN1 (stereo unspecified) + Cc1nc(NC(=O)N2CCCC2C(N)=O)sc1-c1ccnc(C(C)(C)C(F)(F)F)c1,20.5

# Same assay, conditions: second compound 1 µM; first compound 3.16 µM; hits give low values
row,Structure (SMILES),"viability, T/C [%]"
1,C=CC(=O)N1CCN(c2nc(=O)n(-c3c(C)ccnc3C(C)C)c3nc(-c4c(O)cccc4F)c(F)cc23)C(C)C1 (stereo unspecified) + CC(Nc1ncnc2nc[nH]c12)c1cc2cccc(Cl)c2c(=O)n1-c1ccccc1,98.7
2,C#Cc1c(F)ccc2cc(O)cc(-c3ncc4c(N5CC6CCC(C5)N6)nc(OCC56CCCN5CC(F)C6)nc4c3F)c12 (stereo unspecified) + CC(Nc1ccc2c(c1)OCCn1cc(N3C(=O)OCC3C(F)F)nc1-2)C(N)=O,57.2
3,CC(C)NCC(C(=O)N1CCN(c2ncnc3c2C(C)CC3O)CC1)c1ccc(Cl)cc1 (stereo unspecified) + COc1c(OCCCN2CCOCC2)ccc2c3n(c(=NC(=O)c4cnc(N)nc4)nc12)CCN3,1.14
4,CC1(C)CCC(Nc2ncc(C(F)(F)F)c(-c3c[nH]c4c(P(C)(C)=O)c(C#N)ccc34)n2)CN1 (stereo unspecified) + Cc1nc(NC(=O)N2CCCC2C(N)=O)sc1-c1ccnc(C(C)(C)C(F)(F)F)c1,20.2

# Same assay, conditions: second compound 1 µM; first compound 10 µM; hits give low values
row,Structure (SMILES),"viability, T/C [%]"
1,C=CC(=O)N1CCN(c2nc(=O)n(-c3c(C)ccnc3C(C)C)c3nc(-c4c(O)cccc4F)c(F)cc23)C(C)C1 (stereo unspecified) + CC(Nc1ncnc2nc[nH]c12)c1cc2cccc(Cl)c2c(=O)n1-c1ccccc1,97.7
2,C#Cc1c(F)ccc2cc(O)cc(-c3ncc4c(N5CC6CCC(C5)N6)nc(OCC56CCCN5CC(F)C6)nc4c3F)c12 (stereo unspecified) + CC(Nc1ccc2c(c1)OCCn1cc(N3C(=O)OCC3C(F)F)nc1-2)C(N)=O,54
3,CC(C)NCC(C(=O)N1CCN(c2ncnc3c2C(C)CC3O)CC1)c1ccc(Cl)cc1 (stereo unspecified) + COc1c(OCCCN2CCOCC2)ccc2c3n(c(=NC(=O)c4cnc(N)nc4)nc12)CCN3,0.88
4,CC1(C)CCC(Nc2ncc(C(F)(F)F)c(-c3c[nH]c4c(P(C)(C)=O)c(C#N)ccc34)n2)CN1 (stereo unspecified) + Cc1nc(NC(=O)N2CCCC2C(N)=O)sc1-c1ccnc(C(C)(C)C(F)(F)F)c1,1.74

# Same assay, conditions: second compound 3.16 µM; first compound 0.00316 µM; hits give low values
row,Structure (SMILES),"viability, T/C [%]"
1,CCN1CCN(Cc2ccc(Nc3ncc(F)c(-c4cc(F)c5nc(C)n(C(C)C)c5c4)n3)nc2)CC1 + CC(Nc1ncnc2nc[nH]c12)c1cc2cccc(Cl)c2c(=O)n1-c1ccccc1,97.9

# Same assay, conditions: second compound 3.16 µM; first compound 0.01 µM; hits give low values
row,Structure (SMILES),"viability, T/C [%]"
1,CCN1CCN(Cc2ccc(Nc3ncc(F)c(-c4cc(F)c5nc(C)n(C(C)C)c5c4)n3)nc2)CC1 + CC(Nc1ncnc2nc[nH]c12)c1cc2cccc(Cl)c2c(=O)n1-c1ccccc1,110

# Same assay, conditions: second compound 3.16 µM; first compound 0.0316 µM; hits give low values
row,Structure (SMILES),"viability, T/C [%]"
1,C=CC(=O)N1CCN(c2nc(=O)n(-c3c(C)ccnc3C(C)C)c3nc(-c4c(O)cccc4F)c(F)cc23)C(C)C1 (stereo unspecified) + CC(Nc1ncnc2nc[nH]c12)c1cc2cccc(Cl)c2c(=O)n1-c1ccccc1,96
2,CCN1CCN(Cc2ccc(Nc3ncc(F)c(-c4cc(F)c5nc(C)n(C(C)C)c5c4)n3)nc2)CC1 + CC(Nc1ncnc2nc[nH]c12)c1cc2cccc(Cl)c2c(=O)n1-c1ccccc1,94.2
3,CC1(C)CCC(Nc2ncc(C(F)(F)F)c(-c3c[nH]c4c(P(C)(C)=O)c(C#N)ccc34)n2)CN1 (stereo unspecified) + Cc1nc(NC(=O)N2CCCC2C(N)=O)sc1-c1ccnc(C(C)(C)C(F)(F)F)c1,13.2

# Same assay, conditions: second compound 3.16 µM; first compound 0.1 µM; hits give low values
row,Structure (SMILES),"viability, T/C [%]"
1,C=CC(=O)N1CCN(c2nc(=O)n(-c3c(C)ccnc3C(C)C)c3nc(-c4c(O)cccc4F)c(F)cc23)C(C)C1 (stereo unspecified) + CC(Nc1ncnc2nc[nH]c12)c1cc2cccc(Cl)c2c(=O)n1-c1ccccc1,114
2,CCN1CCN(Cc2ccc(Nc3ncc(F)c(-c4cc(F)c5nc(C)n(C(C)C)c5c4)n3)nc2)CC1 + CC(Nc1ncnc2nc[nH]c12)c1cc2cccc(Cl)c2c(=O)n1-c1ccccc1,100
3,CC1(C)CCC(Nc2ncc(C(F)(F)F)c(-c3c[nH]c4c(P(C)(C)=O)c(C#N)ccc34)n2)CN1 (stereo unspecified) + Cc1nc(NC(=O)N2CCCC2C(N)=O)sc1-c1ccnc(C(C)(C)C(F)(F)F)c1,15.6

# Same assay, conditions: second compound 3.16 µM; first compound 0.316 µM; hits give low values
row,Structure (SMILES),"viability, T/C [%]"
1,C=CC(=O)N1CCN(c2nc(=O)n(-c3c(C)ccnc3C(C)C)c3nc(-c4c(O)cccc4F)c(F)cc23)C(C)C1 (stereo unspecified) + CC(Nc1ncnc2nc[nH]c12)c1cc2cccc(Cl)c2c(=O)n1-c1ccccc1,106
